Data reported in ChEMBL document CHEMBL5465560, “Selectivity Literature for EUbOPEN Chemogenomic Library” (2024).

How the values were obtained:
[1] = biological target: Protein-tyrosine kinase 2-beta (Homo sapiens) (UniProt Q14289); test: Selectivity interaction (KinomeScan (DiscoverX)) EUB0000607a PTK2B; details: at 10 µM
[2] = biological target: RAF proto-oncogene serine/threonine-protein kinase (Homo sapiens) (UniProt P04049); test: Selectivity interaction (KinomeScan (DiscoverX)) EUB0000607a RAF1; details: at 10 µM
Sequence of RAF proto-oncogene serine/threonine-protein kinase (Homo sapiens) (P04049 whole entry, canonical isoform): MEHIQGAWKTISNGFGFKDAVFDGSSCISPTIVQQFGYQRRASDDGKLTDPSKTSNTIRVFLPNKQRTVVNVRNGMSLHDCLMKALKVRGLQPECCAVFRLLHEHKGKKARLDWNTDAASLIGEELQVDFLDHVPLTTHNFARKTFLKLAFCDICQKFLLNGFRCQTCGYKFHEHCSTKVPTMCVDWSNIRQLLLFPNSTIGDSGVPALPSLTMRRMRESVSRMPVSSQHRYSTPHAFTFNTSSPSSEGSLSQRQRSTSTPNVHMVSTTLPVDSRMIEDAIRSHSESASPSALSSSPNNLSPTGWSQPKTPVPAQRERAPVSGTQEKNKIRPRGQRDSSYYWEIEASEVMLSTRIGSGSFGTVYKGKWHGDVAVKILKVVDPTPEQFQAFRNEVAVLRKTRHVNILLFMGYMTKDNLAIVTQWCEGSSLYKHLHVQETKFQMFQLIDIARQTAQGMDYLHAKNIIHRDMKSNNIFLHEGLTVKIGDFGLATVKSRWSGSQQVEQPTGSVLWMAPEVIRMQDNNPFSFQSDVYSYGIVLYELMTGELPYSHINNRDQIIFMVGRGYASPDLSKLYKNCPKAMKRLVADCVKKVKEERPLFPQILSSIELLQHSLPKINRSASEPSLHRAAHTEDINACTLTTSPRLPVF

[3] = biological target: T1, Phosphorylase b kinase gamma catalytic chain, liver/testis isoform (Homo sapiens) (UniProt P15735); test: Selectivity interaction (SelectScreen profiling (Invitrogen)) EUB0000607a PHKG2; details: at 2 µM
T1 sequence (whole entry): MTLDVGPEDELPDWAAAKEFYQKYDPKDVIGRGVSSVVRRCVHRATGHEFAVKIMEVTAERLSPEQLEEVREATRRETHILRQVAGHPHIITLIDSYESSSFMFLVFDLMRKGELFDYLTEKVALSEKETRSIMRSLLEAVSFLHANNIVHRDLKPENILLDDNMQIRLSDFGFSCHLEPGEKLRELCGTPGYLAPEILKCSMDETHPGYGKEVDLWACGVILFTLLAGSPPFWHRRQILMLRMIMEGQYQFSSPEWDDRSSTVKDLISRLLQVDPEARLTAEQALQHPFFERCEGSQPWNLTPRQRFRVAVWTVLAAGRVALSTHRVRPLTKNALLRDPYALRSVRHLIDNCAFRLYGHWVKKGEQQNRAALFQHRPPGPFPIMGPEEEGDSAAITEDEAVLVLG

[4] = biological target: RAC-alpha serine/threonine-protein kinase (Homo sapiens, UniProt P31749); test: Selectivity interaction (SelectScreen profiling (Invitrogen)) EUB0000607a AKT1; details: at 2 µM
Sequence of RAC-alpha serine/threonine-protein kinase (P31749 whole entry): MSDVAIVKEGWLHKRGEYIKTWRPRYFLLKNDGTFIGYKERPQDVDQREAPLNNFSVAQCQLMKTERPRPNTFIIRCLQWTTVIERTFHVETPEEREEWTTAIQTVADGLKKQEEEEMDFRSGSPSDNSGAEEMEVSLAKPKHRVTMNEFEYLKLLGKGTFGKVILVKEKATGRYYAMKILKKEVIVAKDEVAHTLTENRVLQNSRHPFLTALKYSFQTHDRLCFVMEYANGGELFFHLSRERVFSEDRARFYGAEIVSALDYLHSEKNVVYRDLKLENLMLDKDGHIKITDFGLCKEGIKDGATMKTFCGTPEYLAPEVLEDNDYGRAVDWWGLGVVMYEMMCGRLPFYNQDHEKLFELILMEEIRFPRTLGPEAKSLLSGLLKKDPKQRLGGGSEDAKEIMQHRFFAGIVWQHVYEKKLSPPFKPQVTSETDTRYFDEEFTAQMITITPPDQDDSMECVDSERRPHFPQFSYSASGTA

[5] = biological target: Serine/threonine-protein kinase 32C (Homo sapiens) (UniProt Q86UX6); details: at 10 µM
Sequence of Serine/threonine-protein kinase 32C (Homo sapiens) (Q86UX6 whole entry): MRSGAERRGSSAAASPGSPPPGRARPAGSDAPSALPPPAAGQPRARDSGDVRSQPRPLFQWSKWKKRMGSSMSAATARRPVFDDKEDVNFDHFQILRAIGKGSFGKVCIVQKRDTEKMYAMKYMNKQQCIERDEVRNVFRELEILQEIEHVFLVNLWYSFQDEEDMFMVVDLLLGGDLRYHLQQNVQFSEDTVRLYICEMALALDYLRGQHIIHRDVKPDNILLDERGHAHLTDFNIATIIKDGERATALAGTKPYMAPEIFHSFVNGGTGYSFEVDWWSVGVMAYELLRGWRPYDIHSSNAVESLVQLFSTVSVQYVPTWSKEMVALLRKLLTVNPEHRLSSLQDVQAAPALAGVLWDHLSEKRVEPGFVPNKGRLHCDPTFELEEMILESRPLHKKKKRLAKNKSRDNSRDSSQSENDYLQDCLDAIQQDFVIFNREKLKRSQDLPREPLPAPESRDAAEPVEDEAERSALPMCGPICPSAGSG

[6] = biological target: T2, TGF-beta receptor type-1 (Homo sapiens) (UniProt P36897); details: at 10 µM
T2 sequence (whole entry): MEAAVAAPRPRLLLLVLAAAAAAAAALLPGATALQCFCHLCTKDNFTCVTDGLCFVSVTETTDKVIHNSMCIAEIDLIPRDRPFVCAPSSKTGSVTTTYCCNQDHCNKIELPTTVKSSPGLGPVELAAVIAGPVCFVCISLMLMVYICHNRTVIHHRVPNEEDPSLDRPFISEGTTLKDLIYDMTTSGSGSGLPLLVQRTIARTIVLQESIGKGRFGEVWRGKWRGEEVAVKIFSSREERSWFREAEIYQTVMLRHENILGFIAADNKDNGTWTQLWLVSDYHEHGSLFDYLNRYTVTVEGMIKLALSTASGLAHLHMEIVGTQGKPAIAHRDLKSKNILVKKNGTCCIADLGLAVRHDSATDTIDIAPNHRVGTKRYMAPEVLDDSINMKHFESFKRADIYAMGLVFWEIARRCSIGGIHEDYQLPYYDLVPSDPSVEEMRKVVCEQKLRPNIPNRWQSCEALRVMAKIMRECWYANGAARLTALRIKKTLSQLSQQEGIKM

[7] = biological target: T3, Serine/threonine-protein kinase TBK1 (Homo sapiens) (UniProt Q9UHD2); test: Selectivity interaction (ActivX KiNativ screen (kinase selectivity in THP-1 cell lysates)) EUB0000639a TBK1; assay type: subcellular; details: lysate, at 1 µM
T3 sequence (whole entry): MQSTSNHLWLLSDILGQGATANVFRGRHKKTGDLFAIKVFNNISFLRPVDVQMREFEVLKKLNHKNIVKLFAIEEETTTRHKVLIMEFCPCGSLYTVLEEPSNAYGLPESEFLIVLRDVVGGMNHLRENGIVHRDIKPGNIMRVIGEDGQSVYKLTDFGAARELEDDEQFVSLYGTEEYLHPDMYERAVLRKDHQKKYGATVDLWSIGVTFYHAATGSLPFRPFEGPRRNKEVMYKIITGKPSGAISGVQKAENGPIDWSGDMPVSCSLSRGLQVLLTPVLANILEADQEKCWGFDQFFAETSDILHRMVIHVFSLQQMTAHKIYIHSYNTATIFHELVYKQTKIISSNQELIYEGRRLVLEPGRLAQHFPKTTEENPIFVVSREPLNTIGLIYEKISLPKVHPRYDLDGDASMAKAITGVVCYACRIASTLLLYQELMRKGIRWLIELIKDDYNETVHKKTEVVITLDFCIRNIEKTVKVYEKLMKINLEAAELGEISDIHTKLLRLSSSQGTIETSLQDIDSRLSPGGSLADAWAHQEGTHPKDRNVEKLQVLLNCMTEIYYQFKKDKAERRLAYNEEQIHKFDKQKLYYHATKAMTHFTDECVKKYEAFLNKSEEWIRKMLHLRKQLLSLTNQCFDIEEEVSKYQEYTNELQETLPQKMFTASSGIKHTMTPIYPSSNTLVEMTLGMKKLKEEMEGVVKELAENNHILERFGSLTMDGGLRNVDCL

[8] = biological target: Serine/threonine-protein kinase OSR1 (Homo sapiens) (UniProt O95747); test: Selectivity interaction (ActivX KiNativ screen (kinase selectivity in THP-1 cell lysates)) EUB0000639a OXSR1; assay type: subcellular; details: lysate
Sequence of Serine/threonine-protein kinase OSR1 (Homo sapiens) (O95747 2-527 limits assumed): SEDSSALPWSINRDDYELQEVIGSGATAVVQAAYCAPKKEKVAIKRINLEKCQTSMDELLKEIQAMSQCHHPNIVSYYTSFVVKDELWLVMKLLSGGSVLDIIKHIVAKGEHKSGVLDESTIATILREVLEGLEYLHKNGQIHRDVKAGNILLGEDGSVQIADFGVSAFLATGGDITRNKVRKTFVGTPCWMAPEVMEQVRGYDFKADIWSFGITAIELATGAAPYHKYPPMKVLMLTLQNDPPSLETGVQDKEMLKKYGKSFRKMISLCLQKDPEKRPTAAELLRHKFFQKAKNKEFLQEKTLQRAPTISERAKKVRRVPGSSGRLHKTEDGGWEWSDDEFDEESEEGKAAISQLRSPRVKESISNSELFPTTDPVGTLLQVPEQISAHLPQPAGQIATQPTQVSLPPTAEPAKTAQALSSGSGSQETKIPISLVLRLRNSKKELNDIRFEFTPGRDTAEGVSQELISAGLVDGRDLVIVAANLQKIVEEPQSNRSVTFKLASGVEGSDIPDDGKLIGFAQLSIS

[9] = biological target: Mitogen-activated protein kinase kinase kinase 1 (Homo sapiens, UniProt Q13233); test: Selectivity interaction (ProQinase) EUB0000171b MAP3K1
Sequence of Mitogen-activated protein kinase kinase kinase 1 (Q13233 whole entry): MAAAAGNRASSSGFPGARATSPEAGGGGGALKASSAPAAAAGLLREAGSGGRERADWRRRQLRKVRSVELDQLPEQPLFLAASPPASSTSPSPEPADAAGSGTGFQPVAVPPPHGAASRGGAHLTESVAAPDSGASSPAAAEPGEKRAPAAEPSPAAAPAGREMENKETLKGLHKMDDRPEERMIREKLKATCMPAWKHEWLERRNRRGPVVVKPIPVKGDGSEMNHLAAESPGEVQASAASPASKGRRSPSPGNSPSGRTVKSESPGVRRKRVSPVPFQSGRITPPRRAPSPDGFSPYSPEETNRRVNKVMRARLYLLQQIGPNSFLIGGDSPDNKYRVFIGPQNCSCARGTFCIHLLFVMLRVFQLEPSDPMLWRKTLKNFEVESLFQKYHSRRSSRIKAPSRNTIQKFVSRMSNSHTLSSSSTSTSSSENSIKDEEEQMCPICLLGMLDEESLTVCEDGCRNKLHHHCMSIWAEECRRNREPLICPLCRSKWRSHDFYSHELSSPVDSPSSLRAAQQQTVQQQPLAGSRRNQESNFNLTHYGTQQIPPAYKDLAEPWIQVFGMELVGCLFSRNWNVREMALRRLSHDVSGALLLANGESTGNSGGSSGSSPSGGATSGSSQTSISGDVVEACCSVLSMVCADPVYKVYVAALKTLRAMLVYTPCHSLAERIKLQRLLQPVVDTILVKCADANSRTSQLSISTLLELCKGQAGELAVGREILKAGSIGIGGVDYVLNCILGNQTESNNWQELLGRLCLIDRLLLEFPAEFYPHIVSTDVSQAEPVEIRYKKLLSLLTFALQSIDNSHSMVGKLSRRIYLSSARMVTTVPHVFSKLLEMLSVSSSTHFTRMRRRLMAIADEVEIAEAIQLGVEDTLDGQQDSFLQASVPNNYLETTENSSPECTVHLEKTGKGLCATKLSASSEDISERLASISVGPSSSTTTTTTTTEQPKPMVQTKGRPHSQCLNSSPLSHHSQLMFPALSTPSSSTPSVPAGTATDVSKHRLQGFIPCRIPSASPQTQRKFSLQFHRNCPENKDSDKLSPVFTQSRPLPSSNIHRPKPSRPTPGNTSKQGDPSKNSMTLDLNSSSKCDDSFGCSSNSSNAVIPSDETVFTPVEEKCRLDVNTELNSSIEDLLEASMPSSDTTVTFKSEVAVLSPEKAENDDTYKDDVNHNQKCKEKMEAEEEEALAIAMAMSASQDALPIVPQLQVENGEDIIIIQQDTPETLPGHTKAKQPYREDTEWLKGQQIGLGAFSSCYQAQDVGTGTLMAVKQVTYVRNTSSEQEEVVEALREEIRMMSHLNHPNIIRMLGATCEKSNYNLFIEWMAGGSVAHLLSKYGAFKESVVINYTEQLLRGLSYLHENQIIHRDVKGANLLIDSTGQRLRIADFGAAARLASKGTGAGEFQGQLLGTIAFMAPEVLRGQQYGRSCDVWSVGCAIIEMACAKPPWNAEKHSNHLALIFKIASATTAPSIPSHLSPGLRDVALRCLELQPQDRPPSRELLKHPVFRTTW

[10] = biological target: G protein-coupled receptor kinase 4 (Homo sapiens) (UniProt P32298); test: Selectivity interaction (KinomeScan (DiscoverX)) EUB0000695a GRK4; details: at 100 nM
Sequence of G protein-coupled receptor kinase 4 (Homo sapiens) (P32298 whole entry, looked up): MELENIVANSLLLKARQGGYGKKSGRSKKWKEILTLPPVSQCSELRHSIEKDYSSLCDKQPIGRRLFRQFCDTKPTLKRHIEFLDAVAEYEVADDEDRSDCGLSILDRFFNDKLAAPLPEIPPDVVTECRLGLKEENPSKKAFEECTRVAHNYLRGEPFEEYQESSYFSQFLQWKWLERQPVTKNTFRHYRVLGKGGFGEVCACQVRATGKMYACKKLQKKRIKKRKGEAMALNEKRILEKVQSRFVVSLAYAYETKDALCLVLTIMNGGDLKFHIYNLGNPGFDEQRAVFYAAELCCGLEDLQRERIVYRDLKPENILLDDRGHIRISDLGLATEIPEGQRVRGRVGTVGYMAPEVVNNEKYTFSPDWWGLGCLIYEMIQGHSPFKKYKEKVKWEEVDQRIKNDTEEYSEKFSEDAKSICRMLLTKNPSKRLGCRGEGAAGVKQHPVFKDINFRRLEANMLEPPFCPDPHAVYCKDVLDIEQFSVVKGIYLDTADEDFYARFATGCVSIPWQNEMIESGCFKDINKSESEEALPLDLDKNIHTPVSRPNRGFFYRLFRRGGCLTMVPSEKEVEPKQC

[11] = biological target: T4, Serine/threonine-protein kinase Sgk1 (Homo sapiens) (UniProt O00141); test: Selectivity interaction (Millipore kinase profiler) EUB0000124b SGK1; details: at 10 µM
T4 sequence (whole entry): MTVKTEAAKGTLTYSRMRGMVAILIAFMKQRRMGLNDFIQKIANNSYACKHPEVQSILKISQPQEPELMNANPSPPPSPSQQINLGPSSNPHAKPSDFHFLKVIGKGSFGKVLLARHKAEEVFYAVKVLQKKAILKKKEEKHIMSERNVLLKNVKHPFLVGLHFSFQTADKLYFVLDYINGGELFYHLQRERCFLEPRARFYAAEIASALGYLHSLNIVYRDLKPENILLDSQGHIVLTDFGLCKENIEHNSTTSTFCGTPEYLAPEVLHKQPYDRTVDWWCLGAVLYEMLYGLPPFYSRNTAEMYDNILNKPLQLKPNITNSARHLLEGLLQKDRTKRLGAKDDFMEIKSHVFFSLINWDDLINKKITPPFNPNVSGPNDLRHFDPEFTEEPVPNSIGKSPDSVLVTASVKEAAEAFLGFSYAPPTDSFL

[12] = biological target: Dual specificity protein kinase CLK1 (Homo sapiens, UniProt P49759); test: Selectivity interaction (Enzymatic assay) EUB0001550a CLK1
Sequence of Dual specificity protein kinase CLK1 (P49759 whole entry): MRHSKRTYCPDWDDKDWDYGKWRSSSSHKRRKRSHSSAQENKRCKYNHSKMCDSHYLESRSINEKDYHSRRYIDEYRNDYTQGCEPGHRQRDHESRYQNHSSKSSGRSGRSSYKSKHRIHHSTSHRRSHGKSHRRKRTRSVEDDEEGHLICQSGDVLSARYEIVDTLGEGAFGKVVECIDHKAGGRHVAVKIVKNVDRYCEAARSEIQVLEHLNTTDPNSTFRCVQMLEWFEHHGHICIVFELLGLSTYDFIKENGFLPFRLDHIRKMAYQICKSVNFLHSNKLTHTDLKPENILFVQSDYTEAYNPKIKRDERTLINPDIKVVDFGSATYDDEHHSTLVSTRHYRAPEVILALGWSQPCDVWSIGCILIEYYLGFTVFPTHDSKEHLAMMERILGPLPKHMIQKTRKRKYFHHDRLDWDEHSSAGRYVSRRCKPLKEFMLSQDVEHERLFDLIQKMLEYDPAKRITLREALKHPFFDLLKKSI

## CNC(=O)Nc1ccc(-c2nc(N3CC4CCC(C3)O4)c3cnn(C4CCC5(CC4)OCCO5)c3n2)cc1
[1]
  % of control: 100%
[2]
  % of control: 100%
[3]
  % of inhibition: 12%
[4]
  % of inhibition: -5%

## CCN(CC)CCCCNc1ncc2cc(-c3cc(OC)cc(OC)c3)c(NC(=O)NC(C)(C)C)nc2n1
[5]
  % of control: 100%
[6]
  % of control: 100%

## CC[C@@H]1[C@H](F)C(=O)N[C@@H]1COc1nccc2cc(C(N)=O)c(OC)cc12 [ZIMLOVISERTIB]
[7]
  % of inhibition: 7.6%
[8]; at 0.01 µM
  % of inhibition: -18.1%
[8]; at 0.04 µM
  % of inhibition: -9.1%
[8]; at 0.2 µM
  % of inhibition: -3%
[8]; at 1 µM
  % of inhibition: -10.3%
[8]; at 5 µM
  % of inhibition: 16.3%

## C=CC(=O)Nc1cccc(C(=O)Nc2ccc(Nc3cc(-c4[nH]c(SC)nc4C)ccn3)cc2)c1
[9]; at 1 µM
  % of control: 100%
[9]; at 5 µM
  % of control: 96%

## Cc1cc(F)c(C(=O)Nc2cccc(-c3nncn3C(C)C)n2)cc1-n1cnc(C2CC2)c1
[10]
  % of control: 100%

## CC(=O)Nc1cccc(-n2c(=O)n(C3CC3)c(=O)c3c(Nc4ccc(I)cc4F)n(C)c(=O)c(C)c32)c1
[11]
  % of control: 114%

## CN(C)CC#Cc1ccc2[nH]c3c(c2c1)-c1nc(N)ncc1CCC3
[12]
  IC50: 420 nM
